Where two headings read alike, the source gives them in different places.
Columns and labels:
AChE = molecular target: T1, AChE (Electrophorus electricus, UniProt O42275); assay: biochemical; format: biochemical; conditions: for IC50: electric eel AChE, Ellman's method, SEM of three experiments; for Selectivity for AChE: ratio of IC50 values, BuChE over AChE; for fold stronger AChE inhibition than the standard neostigmine: relative to neostigmine
T1 construct: electric eel, and horse serum were used as source of AChE and BuChE, respectively; from tissue; host or cells: electric eel
Experimental: (§1) The target compounds, coumarinyl thiazoles 6(a–o) and coumarinyl oxadiazoles 11(a–h), were screened for their inhibitory activity against AChE and BuChE by Ellman's method.
(§2) For the determination of cholinesterase inhibition, electric eel, and horse serum were used as source of AChE and BuChE, respectively. […] The compounds with 1 Mm concentration were prepared in DMSO. Assay was carried out in 96 well-plate in triplicates. The reaction mixture comprised of 20 μL of buffer (tris HCl 50 mM, 0.02 M MgCl2.6H2O, 0.1 mM NaCl) at pH 8, 10 μL of the test compound, 10 μL enzyme acetylcholine or butyrylcholinesterase of 0.03 U/mL (500 U of AChE and 700 U/mg of BuChE). The contents were incubated for 10 min at 25°C followed by the addition of 1 mM of 10 μL of substrate […] for AChE and butyrylthiocholine iodide for BuChE and incubated again at 25°C for 15 min. A 50 μL of 3 mM DTNB as a coloring agent was added and incubated at 25°C for further 10 min. […] The enzyme dilutions were made by using buffer of pH 8 (tris base 50 mM and having 0.1% BSA).

BuChE = molecular target: T2, BuChE (Equus caballus, UniProt P81908); assay: biochemical; format: biochemical; conditions: for Selectivity for BuChE: ratio of IC50 values, AChE over BuChE
T2 construct: electric eel, and horse serum were used as source of AChE and BuChE, respectively; from tissue; host or cells: horse serum
Experimental: as §1, §2

[1] = horse serum BuChE, Ellman's method, SEM of three experiments, read-out: BuChE IC50 (μM) ± SEM

T2 sequence (P81908 whole entry): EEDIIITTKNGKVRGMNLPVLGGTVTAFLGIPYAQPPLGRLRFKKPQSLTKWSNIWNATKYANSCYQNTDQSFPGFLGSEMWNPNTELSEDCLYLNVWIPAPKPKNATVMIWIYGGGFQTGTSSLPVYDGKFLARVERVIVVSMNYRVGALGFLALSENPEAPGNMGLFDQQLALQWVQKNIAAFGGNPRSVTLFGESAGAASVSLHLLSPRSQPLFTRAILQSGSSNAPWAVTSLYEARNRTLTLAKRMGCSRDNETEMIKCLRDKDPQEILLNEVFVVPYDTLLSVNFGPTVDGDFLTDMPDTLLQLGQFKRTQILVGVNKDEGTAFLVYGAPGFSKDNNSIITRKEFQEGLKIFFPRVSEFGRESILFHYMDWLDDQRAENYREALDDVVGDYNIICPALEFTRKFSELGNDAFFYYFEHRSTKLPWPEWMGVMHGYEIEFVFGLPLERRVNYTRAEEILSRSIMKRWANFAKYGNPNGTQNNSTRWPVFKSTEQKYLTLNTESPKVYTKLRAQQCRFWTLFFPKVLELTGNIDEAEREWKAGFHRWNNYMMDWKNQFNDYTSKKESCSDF
T1 sequence (O42275 24-633): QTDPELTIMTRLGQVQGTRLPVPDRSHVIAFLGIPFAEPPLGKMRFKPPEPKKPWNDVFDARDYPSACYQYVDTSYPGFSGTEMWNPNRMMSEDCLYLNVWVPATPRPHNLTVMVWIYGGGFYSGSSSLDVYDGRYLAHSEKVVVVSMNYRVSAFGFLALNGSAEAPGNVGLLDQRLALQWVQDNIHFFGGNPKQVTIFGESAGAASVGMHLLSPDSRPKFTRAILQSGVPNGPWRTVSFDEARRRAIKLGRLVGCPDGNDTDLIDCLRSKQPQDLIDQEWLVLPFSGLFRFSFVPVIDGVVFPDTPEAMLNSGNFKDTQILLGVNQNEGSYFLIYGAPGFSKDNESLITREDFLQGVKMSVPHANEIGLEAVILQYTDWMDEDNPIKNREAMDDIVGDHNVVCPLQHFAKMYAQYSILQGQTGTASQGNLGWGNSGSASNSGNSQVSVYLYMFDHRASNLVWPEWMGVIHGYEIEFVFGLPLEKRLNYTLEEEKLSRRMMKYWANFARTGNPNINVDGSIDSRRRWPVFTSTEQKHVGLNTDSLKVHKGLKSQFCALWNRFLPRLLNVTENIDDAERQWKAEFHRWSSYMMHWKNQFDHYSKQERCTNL

For `C/C(=N\Nc1nc(-c2cc3ccccc3oc2=O)cs1)c1ccccc1` [Compound 6a], the IC50 (AChE) was 16.9 ± 0.32 µM, the “Selectivity for AChE” value (AChE) was 1.93 and the IC50 (BuChE; [1]) was 32.7 ± 2.08 µM. For the same compound, the “Selectivity for BuChE” value (BuChE) was 0.51.

In the case of `CC(=NNc1nc(-c2cc3ccccc3oc2=O)cs1)c1cccc(N)c1` [Compound 6b], the IC50 (AChE) is reported as 0.87 ± 0.09 µM, the “Selectivity for AChE” value (AChE) is reported as 35.8 and the “fold stronger AChE inhibition than the standard neostigmine” value (AChE) is reported as ~ 32 fold. For the same compound, the IC50 (BuChE; [1]) was 31.22 ± 0.17 µM and the “Selectivity for BuChE” value (BuChE) was 0.027.

With `C/C(=N\Nc1nc(-c2cc3ccccc3oc2=O)cs1)c1ccccc1Br` [Compound 6c] the IC50 (AChE) was 21.2 ± 0.23 µM, the “Selectivity for AChE” value (AChE) was 0.91 and the IC50 (BuChE; [1]) was 19.3 ± 1.42 µM. For the same compound, the “Selectivity for BuChE” value (BuChE) was 1.09.

`C/C(=N\Nc1nc(-c2cc3ccccc3oc2=O)cs1)c1cccc(Br)c1` [Compound 6d] was tested, and the IC50 (AChE) was 30.1 ± 1.73 µM, the “Selectivity for AChE” value (AChE) was 0.50 and the “BuChE inhibition, in words” value (BuChE) was “moderate inhibitors”. The IC50 (BuChE; [1]) was 15.2 ± 0.53 µM and the “Selectivity for BuChE” value (BuChE) was 1.98.

In the case of `C/C(=N\Nc1nc(-c2cc3ccccc3oc2=O)cs1)c1ccc(Br)cc1` [Compound 6e], the IC50 (AChE) is reported as 33.42 ± 0.18 µM, the “Selectivity for AChE” value (AChE) is reported as 1.47 and the IC50 (BuChE; [1]) is reported as 49.12 ± 0.12 µM. The “Selectivity for BuChE” value (BuChE) was 0.68.

In the case of `C/C(=N\Nc1nc(-c2cc3ccccc3oc2=O)cs1)c1ccccc1F` [Compound 6f], the IC50 (AChE) is reported as 23.1 ± 0.32 µM, the “Selectivity for AChE” value (AChE) is reported as 1.39 and the IC50 (BuChE; [1]) is reported as 32.1 ± 1.21 µM. The “Selectivity for BuChE” value (BuChE) was 0.71.

In the case of `C/C(=N\Nc1nc(-c2cc3ccccc3oc2=O)cs1)c1ccc(F)cc1` [Compound 6g], the IC50 (AChE) is reported as 36.34 ± 0.18 µM, the “Selectivity for AChE” value (AChE) is reported as 0.77 and the IC50 (BuChE; [1]) is reported as 28.01 ± 0.21 µM. The “Selectivity for BuChE” value (BuChE) was 1.29.

`COc1ccc(C(C)=NNc2nc(-c3cc4ccccc4oc3=O)cs2)cc1` [Compound 6h] was tested, and the IC50 (AChE) was 1.08 ± 0.84 µM, the “Selectivity for AChE” value (AChE) was 17.8 and the “fold stronger AChE inhibition than the standard neostigmine” value (AChE) was 26 fold. For the same compound, the “BuChE inhibition, in words” value (BuChE) was “moderate inhibitors”, the IC50 (BuChE; [1]) was 19.32 ± 0.11 µM and the “Selectivity for BuChE” value (BuChE) was 0.055.

In the case of `COc1ccc(/C(C)=N/Nc2nc(-c3cc4ccccc4oc3=O)cs2)cc1F` [Compound 6i], the IC50 (AChE) is reported as 2.34 ± 1.43 µM, the “Selectivity for AChE” value (AChE) is reported as 9.44 and the IC50 (BuChE; [1]) is reported as 22.1 ± 1.08 µM. For the same compound, the “Selectivity for BuChE” value (BuChE) was 0.105.

In the case of `COc1ccc(/C(C)=N/Nc2nc(-c3cc4ccccc4oc3=O)cs2)c(O)c1` [Compound 6j], the IC50 (AChE) is reported as 9.05 ± 0.23 µM, the “Selectivity for AChE” value (AChE) is reported as 1.22 and the IC50 (BuChE; [1]) is reported as 11 ± 3.37 µM. For the same compound, the “Selectivity for BuChE” value (BuChE) was 0.81.

With `COc1cc(C(C)=NNc2nc(-c3cc4ccccc4oc3=O)cs2)ccc1O` [Compound 6k] the IC50 (AChE) was 5.86 ± 0.15 µM, the “Selectivity for AChE” value (AChE) was 3.29 and the IC50 (BuChE; [1]) was 19.1 ± 1.32 µM. The “Selectivity for BuChE” value (BuChE) was 0.303.

For `COc1ccc(/C(C)=N/Nc2nc(-c3cc4ccccc4oc3=O)cs2)cc1I` [Compound 6l], the IC50 (AChE) was 13.8 ± 1.58 µM, the “Selectivity for AChE” value (AChE) was 2.32 and the IC50 (BuChE; [1]) was 32.1 ± 1.08 µM. For the same compound, the “Selectivity for BuChE” value (BuChE) was 0.42.

With `C/C(=N\Nc1nc(-c2cc3ccccc3oc2=O)cs1)c1ccc(Cl)cc1N` [Compound 6m] the IC50 (AChE) was 22.74 ± 0.16 µM, the “Selectivity for AChE” value (AChE) was 1.63 and the IC50 (BuChE; [1]) was 37.2 ± 0.55 µM. The “Selectivity for BuChE” value (BuChE) was 0.61.

`O=c1oc2ccccc2cc1-c1csc(NN=C(c2ccccc2)c2ccccc2)n1` [Compound 6n] was tested, and the IC50 (AChE) was 11.2 ± 0.17 µM, the “Selectivity for AChE” value (AChE) was 1.94 and the IC50 (BuChE; [1]) was 21.6 ± 3.09 µM. The “Selectivity for BuChE” value (BuChE) was 0.51.

`C/C(=N\Nc1nc(-c2cc3ccccc3oc2=O)cs1)c1cc2ccccc2oc1=O` [Compound 6o] was tested, and the IC50 (AChE) was 10.1 ± 1.12 µM, the “Selectivity for AChE” value (AChE) was 2.28 and the IC50 (BuChE; [1]) was 23.2 ± 0.29 µM. For the same compound, the “Selectivity for BuChE” value (BuChE) was 0.43.

In the case of `CNCn1nc(-c2cc3ccccc3oc2=O)oc1=S` [Compound 11a], the IC50 (AChE) is reported as 6.07 ± 0.23 µM, the “Selectivity for AChE” value (AChE) is reported as 0.056 and the IC50 (BuChE; [1]) is reported as 0.341 ± 0.06 µM. For the same compound, the “Selectivity for BuChE” value (BuChE) was 17.8.

For `CCCCNCn1nc(-c2cc3ccccc3oc2=O)oc1=S` [Compound 11b], the IC50 (AChE) was 9.41 ± 0.55 µM, the “Selectivity for AChE” value (AChE) was 0.081 and the IC50 (BuChE; [1]) was 0.77 ± 0.08 µM. For the same compound, the “Selectivity for BuChE” value (BuChE) was 12.2.

For `Cc1ccc(NCn2nc(-c3cc4ccccc4oc3=O)oc2=S)cc1` [Compound 11c], the IC50 (AChE) was 23.8 ± 0.94 µM, the “Selectivity for AChE” value (AChE) was 0.33 and the IC50 (BuChE; [1]) was 8.01 ± 3.58 µM. The “Selectivity for BuChE” value (BuChE) was 2.97.

With `O=c1oc2ccccc2cc1-c1nn(CNc2ccccc2Cl)c(=S)o1` [Compound 11d] the IC50 (AChE) was 16.6 ± 2.72 µM, the “Selectivity for AChE” value (AChE) was 0.20 and the IC50 (BuChE; [1]) was 3.48 ± 1.58 µM. The “Selectivity for BuChE” value (BuChE) was 4.77.

With `O=c1oc2ccccc2cc1-c1nn(CNc2cccc(Cl)c2)c(=S)o1` [Compound 11e] the IC50 (AChE) was 12.4 ± 0.08 µM, the “Selectivity for AChE” value (AChE) was 0.012 and the IC50 (BuChE; [1]) was 0.15 ± 0.09 µM. For the same compound, the “Selectivity for BuChE” value (BuChE) was 82.6 and the “fold more potent against BuChE than neostigmine” value (BuChE; relative to neostigmine) was “about 107 fold”.

With `O=c1oc2ccccc2cc1-c1nn(CNc2ccc(Cl)cc2)c(=S)o1` [Compound 11f] the IC50 (AChE) was 18.6 ± 0.32 µM, the “Selectivity for AChE” value (AChE) was 0.65 and the IC50 (BuChE; [1]) was 12.1 ± 1.08 µM. For the same compound, the “Selectivity for BuChE” value (BuChE) was 1.53.

In the case of `O=c1oc2ccccc2cc1-c1nn(CN(c2ccccc2)c2ccccc2)c(=S)o1` [Compound 11g], the “AChE inhibition, in words” value (AChE) is reported as “moderate inhibitors”, the IC50 (AChE) is reported as 9.57 ± 1.42 µM and the “Selectivity for AChE” value (AChE) is reported as 0.47. The IC50 (BuChE; [1]) was 4.54 ± 0.54 µM and the “Selectivity for BuChE” value (BuChE) was 2.10.

In the case of `O=c1oc2ccccc2cc1-c1nn(CN2CCOCC2)c(=S)o1` [Compound 11h], the “AChE inhibition, in words” value (AChE) is reported as “moderate inhibitors”, the IC50 (AChE) is reported as 12.2 ± 1.67 µM and the “Selectivity for AChE” value (AChE) is reported as 1.09. The IC50 (BuChE; [1]) was 13.5 ± 0.41 µM and the “Selectivity for BuChE” value (BuChE) was 0.91.

With `CN(C)C(=O)Oc1cccc([N+](C)(C)C)c1` [Neostigmine, reference compound] the IC50 (AChE) was 28.2 ± 2.01 µM, the “Selectivity for AChE” value (AChE) was 0.57 and the IC50 (BuChE) was 16.1 ± 1.13 µM. The “Selectivity for BuChE” value (BuChE) was 1.75.

Reference: article PMC5879128, “Combined in Vitro and in Silico Studies for the Anticholinesterase Activity and Pharmacokinetics of Coumarinyl Thiazoles and Oxadiazoles” (Frontiers in Chemistry, 2018)
